Results on 38 compounds are retold here after US9096524B2, “Anthelmintic agents and their use” (Intervet International B.V., priority 2009, dated 2015).

The assay deals with A. galli (intestinal roundworm of chicken) larval stage 3; O. dentatum (nodular worm of swine) larval stages 3 and 4. In words: Activity against Ascaridia galli and Oesophagostomum dentatum larvae in vitro (minimum effective concentration). The format is cell-based.
[1] abbreviates: in vitro, two or more of A. galli L3, O. dentatum L3, L4, threshold 1 μM, read-out: MEC (minimum effective concentration) against two or more of the tested nematodes.
[2] abbreviates: in vitro, one or more of A. galli L3, O. dentatum L3, L4, threshold 1 μM, read-out: MEC (minimum effective concentration) against one or more of the tested nematodes.
The mark [3] stands for this setting: in vitro, one or more of A. galli L3, O. dentatum L3, L4, threshold 7 μM, read-out: MEC (minimum effective concentration) against one or more of the tested nematodes.
Where [4] appears, read: read-out: MEC (minimum effective concentration) against two or more of the tested nematodes, in vitro, two or more of A. galli L3, O. dentatum L3, L4, threshold 1 μM.

Molecules are shown by their SMILES. Like-named read-outs stand apart in the source and are kept apart here.

On to `N#Cc1ccc(N2CCC(NC(=S)CCCN3CCN(c4ccc(C(F)(F)F)cc4)CC3)CC2)cc1C(F)(F)F` [Example 662], for which, under setting [1], the minimal effective concentration is less than 1 µM.

For `O=[N+]([O-])c1ccc(NC2CCN(C(=S)CCN3CCN(C(=S)c4ccc(C(F)(F)F)cc4)CC3)CC2)cc1C(F)(F)F` [Example 667], the minimal effective concentration under setting [1] was less than 1 µM.

Consider `CC(CN1CCN(c2ccc(Cl)cc2)CC1)C(=S)N1CCC(Nc2ccc(C#N)c(C(F)(F)F)c2)CC1` (centres unmarked) [Example 668], for which, under setting [1], the minimal effective concentration was less than 1 µM.

Consider `COc1cc(NC2CCN(C(=S)CCN3CCN(c4ccc(OCc5ccccc5)cc4)CC3)CC2)ccc1[N+](=O)[O-]` [Example 675], for which, under setting [1], the minimal effective concentration was less than 1 µM.

In the case of `CN(CC1CCN(c2ccc(Cl)cc2)CC1)C(=S)N1CCC(Nc2ccc([N+](=O)[O-])c(C(F)(F)F)c2)CC1` [Example 676], the minimal effective concentration under setting [1] was less than 1 µM.

Take `O=[N+]([O-])c1ccc(NC2CCN(C(=S)CCN3CCN(c4ccc(OCc5ccccc5)cc4)CC3)CC2)cc1C(F)(F)F` [Example 678]: under setting [1], the minimal effective concentration was less than 1 µM.

On to `CCOc1ccc(N2CCC(OCC(=S)N3CCC(Nc4ccc([N+](=O)[O-])c(C(F)(F)F)c4)CC3)CC2)cc1` [Example 694], for which, under setting [2], the minimal effective concentration is less than 1 µM.

Turning to `O=[N+]([O-])c1ccc(OC2CCN(C(=S)CCN3CCC(OCc4ccc(C(F)(F)F)cc4)CC3)CC2)cc1C(F)(F)F` [Example 695], the minimal effective concentration under setting [2] was less than 1 µM and the minimal effective concentration under setting [1] was less than 1 µM.

For `O=[N+]([O-])c1ccc(OC2CCN(C(=S)CCN3CCC(c4ccc(C(F)(F)F)cc4)CC3)CC2)cc1C(F)(F)F` [Example 697], the minimal effective concentration reads like this: under setting [2], less than 1 µM; under setting [1], less than 1 µM.

`CN(C)S(=O)(=O)c1ccc(NC2CCN(C(=S)CCCN3CCN(c4ccc(C(F)(F)F)cc4)CC3)CC2)cc1C(F)(F)F` [Example 699]: the minimal effective concentration under setting [1] was less than 1 µM.

In the case of `FC(F)(F)Oc1ccc(NC2CCN(C(=S)CCCN3CCN(c4ccc(C(F)(F)F)cc4)CC3)CC2)cc1` [Example 701], the minimal effective concentration under setting [1] is less than 1 µM.

Regarding `O=C(CCCN1CC2CN(c3ccc(C(F)(F)F)cc3)CC2C1)N1CCC(Nc2ccc([N+](=O)[O-])c(C(F)(F)F)c2)CC1` (centres unmarked) [Example 715], the minimal effective concentration under setting [2] was less than 1 µM and the minimal effective concentration under setting [1] was less than 1 µM.

Consider `O=C(CCCN1CC2CN(c3ccc(Cl)cc3)CC2C1)N1CCC(Nc2ccc([N+](=O)[O-])c(C(F)(F)F)c2)CC1` (centres unmarked) [Example 716], for which the minimal effective concentration was less than 1 µM under setting [2] and less than 1 µM under setting [1].

Regarding `O=C(CCN1CCN(c2nnc(C(F)(F)F)s2)CC1)N1CC[C@H](Nc2ccc([N+](=O)[O-])c(C(F)(F)F)c2)C1` [Example 720], the minimal effective concentration under setting [2] was less than 1 µM.

With `O=C(CCN1CCCN(c2ccc(C(F)(F)F)cc2)CC1)N1CC[C@H](Nc2ccc([N+](=O)[O-])c(C(F)(F)F)c2)C1` [Example 725], under setting [1], the minimal effective concentration was less than 1 µM.

Regarding `O=C(CCCN1CCN(c2ccc(C(F)(F)F)cc2)CC1)N1CC[C@H](Nc2ccc([N+](=O)[O-])c(C(F)(F)F)c2)C1` [Example 730], the minimal effective concentration by setting is: under setting [2], less than 1 µM; under setting [1], less than 1 µM.

As for `O=C(CCCN1CCN(c2ccc(Cl)cc2)CC1)N1CC[C@H](Nc2ccc([N+](=O)[O-])c(C(F)(F)F)c2)C1` [Example 731], the minimal effective concentration under setting [2] was less than 1 µM.

Take `O=C(CCCC1CCN(c2ccc(C(F)(F)F)cc2)CC1)N1CC[C@H](Nc2ccc([N+](=O)[O-])c(C(F)(F)F)c2)C1` [Example 733]: the minimal effective concentration by setting is: under setting [2], less than 1 µM; under setting [3], less than 7 µM.

In the case of `O=C(CCCC1CCN(c2ccc(Cl)cc2)CC1)N1CC[C@H](Nc2ccc([N+](=O)[O-])c(C(F)(F)F)c2)C1` [Example 734], the minimal effective concentration under setting [3] was less than 7 µM.

`O=C(CCCN1CC2CN(c3ccc(C(F)(F)F)cc3)CC2C1)N1CC[C@H](Nc2ccc([N+](=O)[O-])c(C(F)(F)F)c2)C1` (some centres unmarked) [Example 743]: the minimal effective concentration under setting [3] is less than 7 µM.

As for `COc1ccc(N2CCN(CCCC(=O)N3CC[C@H](Nc4ccc([N+](=O)[O-])c(C(F)(F)F)c4)C3)CC2)cn1` [Example 746], the minimal effective concentration under setting [2] is less than 1 µM.

Take `O=C(CCCN1CCN(c2nnc(C(F)(F)F)s2)CC1)N1CC[C@H](Nc2ccc([N+](=O)[O-])c(C(F)(F)F)c2)C1` [Example 749]: the minimal effective concentration under setting [2] is less than 1 µM.

As for `CC(CN1CCN(c2ccc(Cl)cc2)CC1)C(=O)N1CC[C@@H](Nc2ccc([N+](=O)[O-])c(C(F)(F)F)c2)C1` (some centres unmarked) [Example 752], under setting [4], the minimal effective concentration is less than 1 µM.

For the compound `N#Cc1ccc(NC2CCN(C(=O)CCCC3CCN(c4ccc(Cl)cc4)CC3)CC2)cc1C(F)(F)F` [Example 754], the minimal effective concentration under setting [4] is less than 1 µM.

`N#Cc1ccc(NC2CCN(C(=O)CCCN3CCCN(c4ccc(Cl)cc4)CC3)CC2)cc1C(F)(F)F` [Example 757]: the minimal effective concentration under setting [4] was less than 1 µM.

In the case of `N#Cc1ccc(NC2CCN(C(=O)CCCN3CCC(Nc4ccc(Cl)cc4)CC3)CC2)cc1C(F)(F)F` [Example 759], under setting [1], the minimal effective concentration is less than 1 µM.

In the case of `COc1ccc(N2CCN(CCCC(=O)N3CCC(Nc4ccc(C#N)c(C(F)(F)F)c4)CC3)CC2)cn1` [Example 760], under setting [4], the minimal effective concentration was less than 1 µM.

In the case of `N#Cc1ccc(NC2CCN(C(=O)CCN3CCN(c4ccc(Cl)cn4)CC3)CC2)cc1C(F)(F)F` [Example 764], under setting [4], the minimal effective concentration was less than 1 µM.

`N#Cc1ccc(NC2CCN(C(=O)CCN3CCCN(c4ccc(Cl)cc4)CC3)CC2)cc1C(F)(F)F` [Example 770]: under setting [4], the minimal effective concentration was less than 1 µM.

As to `O=C(CCCC1CCN(c2ccc(Cl)cc2)CC1)N1CC[C@@H](Nc2ccc([N+](=O)[O-])c(C(F)(F)F)c2)C1` [Example 774], the minimal effective concentration was less than 1 µM under setting [2] and less than 1 µM under setting [1].

`O=C(CCC1CCN(c2ccc(C(F)(F)F)cc2)CC1)N1CC[C@@H](Nc2ccc([N+](=O)[O-])c(C(F)(F)F)c2)C1` [Example 775]: under setting [2], the minimal effective concentration was less than 1 µM.

For `O=C(CCCN1CCCN(c2ccc(Cl)cc2)CC1)N1CC[C@@H](Nc2ccc([N+](=O)[O-])c(C(F)(F)F)c2)C1` [Example 777], the minimal effective concentration under setting [2] is less than 1 µM.

As to `CC(C)(C)c1ccc(N2CCCN(CCCC(=O)N3CC[C@@H](Nc4ccc([N+](=O)[O-])c(C(F)(F)F)c4)C3)CC2)cc1` [Example 778], the minimal effective concentration is less than 1 µM under setting [2] and less than 1 µM under setting [1].

Consider `O=C(CCCN1CCN(c2nnc(C(F)(F)F)s2)CC1)N1CC[C@@H](Nc2ccc([N+](=O)[O-])c(C(F)(F)F)c2)C1` [Example 784], for which, under setting [2], the minimal effective concentration is less than 1 µM.

Consider `CC(CN1CCN(c2ccc(C(C)(C)C)cc2)CC1)C(=O)N1CC[C@@H](Nc2ccc([N+](=O)[O-])c(C(F)(F)F)c2)C1` (some centres unmarked) [Example 787], for which, under setting [2], the minimal effective concentration was less than 1 µM.

For `O=C(CCN1CCN(c2ccc(Cl)cc2)CC1)N1CC[C@@H](Nc2ccc([N+](=O)[O-])c(C(F)(F)F)c2)C1` [Example 789], the minimal effective concentration was less than 1 µM under setting [2] and less than 1 µM under setting [1].

As to `CC(C)(C)c1ccc(N2CCN(CCC(=O)N3CC[C@@H](Nc4ccc([N+](=O)[O-])c(C(F)(F)F)c4)C3)CC2)cc1` [Example 790], the minimal effective concentration under setting [2] is less than 1 µM.

As to `O=C(CCCN1CCN(c2ccc(Cl)cc2)CC1)N1CC[C@@H](Nc2ccc([N+](=O)[O-])c(C(F)(F)F)c2)C1` [Example 792], the minimal effective concentration under setting [2] was less than 1 µM.
